Results taken from ChEMBL document CHEMBL1155923, “Anti-HBV agents. Part 1: Synthesis of alisol A derivatives: a new class of hepatitis B virus inhibitors” (Bioorg Med Chem Lett, 2008).
pIC50: −log10 of the molar value.

Key:
[1] = Cytotoxicity against human HepG2.2.15 cells; format: cell-based, HepG2 2.2.15
[2] = test system: Hepatitis B virus; experiment: Antiviral activity against hepatitis B virus-infected human HepG2.2.15 cells assessed as inhibition of HBV surface antigen secretion; format: functional, organism-based; settings: HepG2 2.2.15
[3] = test system: Hepatitis B virus; experiment: Antiviral activity against hepatitis B virus-infected human HepG2.2.15 cells assessed as inhibition of HBV e antigen secretion; format: functional, organism-based; settings: HepG2 2.2.15
[4] = Selectivity index, ratio of CC50 for human HepG2.2.15 cells to IC50 for HBV surface antigen secretion; format: functional
[5] = Selectivity index, ratio of CC50 for human HepG2.2.15 cells to IC50 for HBV e antigen secretion; format: functional

| Structure (SMILES) | pIC50 [2] | pIC50 [3] | CC50 [1] [mM] | Ratio CC50/IC50 [4] | Ratio CC50/IC50 [5] |
| --- | --- | --- | --- | --- | --- |
| C=C(C)[C@H](OC(=O)CC)[C@H](C[C@@H](C)C1=C2C[C@H](OC(=O)CC)[C@H]3[C@@]4(C)CCC(=O)C(C)(C)[C@@H]4CC[C@]3(C)[C@@]2(C)CC1)OC(=O)CC | < 1.92 | < 1.92 | > 1.2 |  |  |
| C[C@H](C[C@H](O)[C@@H](O)C(C)(C)O)C1=C2C[C@H](O)[C@H]3[C@@]4(C)CCCC(C)(C)[C@@H]4CC[C@]3(C)[C@@]2(C)CC1 | 4.10 | 2.29 | < 0.08 | <1 | <0.016 |
| C[C@H](C[C@H](OC(=O)c1ccccc1)[C@@H](OC(=O)c1ccccc1)C(C)(C)O)C1=C2C[C@H](OC(=O)c3ccccc3)[C@H]3[C@@]4(C)CCC(=O)C(C)(C)[C@@H]4CC[C@]3(C)[C@@]2(C)CC1 | < 2.82 | < 2.82 | > 1.5 |  |  |
| C=C(C)[C@H](OC(=O)c1ccccc1)[C@H](C[C@@H](C)[C@]12CC[C@@]3(C)[C@@]1(C[C@H](OC(=O)c1ccccc1)[C@H]1[C@@]4(C)CCC(=O)C(C)(C)[C@@H]4CC[C@@]13C)O2)OC(=O)c1ccccc1 | < 2.80 | < 2.80 | > 1.6 |  |  |
| C[C@H](C[C@H](OC(=O)/C=C/c1ccccc1)[C@@H](OC(=O)/C=C/c1ccccc1)C(C)(C)O)C1=C2C[C@H](OC(=O)/C=C/c3ccccc3)[C@H]3[C@@]4(C)CCC(=O)C(C)(C)[C@@H]4CC[C@]3(C)[C@@]2(C)CC1 | < 2.85 | < 2.85 | > 1.4 |  |  |
| Cc1ccc(S(=O)(=O)N/N=C2\CC[C@@]3(C)[C@@H](CC[C@@]4(C)[C@H]3[C@@H](O)CC3=C([C@H](C)C[C@H](O)[C@@H](O)C(C)(C)O)CC[C@@]34C)C2(C)C)cc1 | 4.54 | 4.54 | < 0.029 | <1 | <1 |
| C=C(C)[C@H](OC(=O)c1ccccc1)[C@H](C[C@@H](C)C1=C2C[C@H](OC(=O)c3ccccc3)[C@H]3[C@@]4(C)CCC(=O)C(C)(C)[C@@H]4CC[C@]3(C)[C@@]2(C)CC1)OC(=O)c1ccccc1 | < 2.64 | < 2.64 | > 2.3 |  |  |
| C=C(C)[C@H](OC(=O)/C=C/c1ccccc1)[C@H](C[C@@H](C)C1=C2C[C@H](OC(=O)/C=C/c3ccccc3)[C@H]3[C@@]4(C)CCC(=O)C(C)(C)[C@@H]4CC[C@]3(C)[C@@]2(C)CC1)OC(=O)/C=C/c1ccccc1 | < 2.74 | < 2.74 | > 1.8 |  |  |
| CC(C)C(=O)O[C@@H](C[C@@H](C)C1=C2C[C@H](OC(=O)C(C)C)[C@H]3[C@@]4(C)CCC(=O)C(C)(C)[C@@H]4CC[C@]3(C)[C@@]2(C)CC1)[C@@H](OC(=O)C(C)C)C(C)(C)O | 2.77 | 3.05 | > 2.2 | >1.3 | >2.4 |
| C=C(C)[C@H](OC(=O)/C=C/c1ccccc1)[C@H](C[C@@H](C)[C@]12CC[C@@]3(C)[C@@]1(C[C@H](OC(=O)/C=C/c1ccccc1)[C@H]1[C@@]4(C)CCC(=O)C(C)(C)[C@@H]4CC[C@@]13C)O2)OC(=O)/C=C/c1ccccc1 | < 2.80 | < 2.80 | > 1.6 |  |  |
| C=C(C)[C@H](OC(=O)C(C)C)[C@H](C[C@@H](C)C1=C2C[C@H](OC(=O)C(C)C)[C@H]3[C@@]4(C)CCC(=O)C(C)(C)[C@@H]4CC[C@]3(C)[C@@]2(C)CC1)OC(=O)C(C)C | < 2.80 | < 2.80 | > 1.6 |  |  |
| C[C@H](C[C@H](OC(=O)/C=C/c1ccccc1)[C@@H](OC(=O)/C=C/c1ccccc1)C(C)(C)O)[C@]12CC[C@@]3(C)[C@@]1(C[C@H](OC(=O)/C=C/c1ccccc1)[C@H]1[C@@]4(C)CCC(=O)C(C)(C)[C@@H]4CC[C@@]13C)O2 | < 2.89 | 3.00 | > 1.3 |  | >1.3 |
| C[C@H](C[C@H](O)[C@@H](O)C(C)(C)O)C1=C2C[C@H](O)[C@H]3[C@@]4(C)CCC(=O)C(C)(C)[C@@H]4CC[C@]3(C)[C@@]2(C)CC1 [ALISOL A] | 4.41 | < 2.62 | 0.062 | 1.6 | <0.03 |

Continued, in another order:

| pIC50 [2] | pIC50 [3] | Structure (SMILES) | CC50 [1] [mM] | Ratio CC50/IC50 [4] | Ratio CC50/IC50 [5] |
| --- | --- | --- | --- | --- | --- |
| < 2.85 | < 2.85 | CCC(=O)O[C@@H](C[C@@H](C)C1=C2C[C@H](OC(=O)CC)[C@H]3[C@@]4(C)CCC(=O)C(C)(C)[C@@H]4CC[C@]3(C)[C@@]2(C)CC1)[C@@H](OC(=O)CC)C(C)(C)O | > 1.4 |  |  |
| < 2.92 | < 2.92 | CCC(=O)O[C@@H](C[C@@H](C)[C@]12CC[C@@]3(C)[C@@]1(C[C@H](OC(=O)CC)[C@H]1[C@@]4(C)CCC(=O)C(C)(C)[C@@H]4CC[C@@]13C)O2)[C@@H](OC(=O)CC)C(C)(C)O | > 1.2 |  |  |
| < 2.70 | < 2.70 | CC(=O)O[C@@H](C[C@@H](C)C1=C2C[C@H](OC(C)=O)[C@H]3[C@@]4(C)CCC(=O)C(C)(C)[C@@H]4CC[C@]3(C)[C@@]2(C)CC1)[C@@H](OC(C)=O)C(C)(C)O | > 2 |  |  |
| 4.62 | 4.55 | C=C(C)[C@H](OC(C)=O)[C@H](C[C@@H](C)[C@]12CC[C@@]3(C)[C@@]1(C[C@H](OC(C)=O)[C@H]1[C@@]4(C)CCC(=O)C(C)(C)[C@@H]4CC[C@@]13C)O2)OC(C)=O | > 2.6 | >108 | >93 |
| 4.35 | 2.96 | C[C@H](C[C@H](O)[C@@H](O)C(C)(C)O)[C@]12CC[C@@]3(C)[C@@]1(C[C@H](O)[C@H]1[C@@]4(C)CCC(=O)C(C)(C)[C@@H]4CC[C@@]13C)O2 | 0.43 | 9.6 | 0.39 |
| < 2.70 | < 2.70 | CC(=O)O[C@@H](C[C@@H](C)[C@]12CC[C@@]3(C)[C@@]1(C[C@H](OC(C)=O)[C@H]1[C@@]4(C)CCC(=O)C(C)(C)[C@@H]4CC[C@@]13C)O2)[C@@H](OC(C)=O)C(C)(C)O | > 2 |  |  |
| 3.80 | < 2.60 | C=C(C)[C@H](OC(=O)CC)[C@H](C[C@@H](C)[C@]12CC[C@@]3(C)[C@@]1(C[C@H](OC(=O)CC)[C@H]1[C@@]4(C)CCC(=O)C(C)(C)[C@@H]4CC[C@@]13C)O2)OC(=O)CC | > 2.5 | >16 |  |
| < 2.72 | < 2.72 | CC(C)C(=O)O[C@@H](C[C@@H](C)[C@]12CC[C@@]3(C)[C@@]1(C[C@H](OC(=O)C(C)C)[C@H]1[C@@]4(C)CCC(=O)C(C)(C)[C@@H]4CC[C@@]13C)O2)[C@@H](OC(=O)C(C)C)C(C)(C)O | > 1.9 |  |  |
| < 2.89 | < 2.89 | C=C(C)[C@H](OC(=O)C(C)C)[C@H](C[C@@H](C)[C@]12CC[C@@]3(C)[C@@]1(C[C@H](OC(=O)C(C)C)[C@H]1[C@@]4(C)CCC(=O)C(C)(C)[C@@H]4CC[C@@]13C)O2)OC(=O)C(C)C | > 1.3 |  |  |
| < 2.77 | 2.96 | C[C@H](C[C@H](OC(=O)c1ccccc1)[C@@H](OC(=O)c1ccccc1)C(C)(C)O)[C@]12CC[C@@]3(C)[C@@]1(C[C@H](OC(=O)c1ccccc1)[C@H]1[C@@]4(C)CCC(=O)C(C)(C)[C@@H]4CC[C@@]13C)O2 | > 1.7 |  | >1.5 |
| 4.55 | 4.54 | C=C(C)[C@H](OC(C)=O)[C@H](C[C@@H](C)C1=C2C[C@H](OC(C)=O)[C@H]3[C@@]4(C)CCC(=O)C(C)(C)[C@@H]4CC[C@]3(C)[C@@]2(C)CC1)OC(C)=O | 0.52 | 18 | 18 |
